Source: patent US20220289724A1, “KIF18A INHIBITORS” (AMGEN INC., priority 2019, published 2022)

Molecular target: T1, Recombinant human KIF18A (1-467 His-tagged) protein (Homo sapiens, UniProt Q8NI77)
T1 construct: Recombinant human KIF18A (1-467 His-tagged) protein; His; made in house
Assay: KIF18A Enzyme Assay: microtubule-stimulated ATPase activity assay (ADP-Glo)
Format: biochemical
Conditions: KIF18A protein 30 nM, 30 μg/mL pig microtubules, ATP at Km 75 μM, ADP-Glo luminescence, RT
Source text: KIF18A Enzyme Assay: Microtubule-stimulated ATPase activity assay is used to measure KIF18A enzyme activity after treatment with compound. Compounds were 2-fold serially diluted in DMSO (Sigma Inc) over 22-point concentration range. Recombinant human KIF18A (1-467 His-tagged) protein was expressed using a baculovirus system and purified by affinity chromatography by Amgen Inc. Concentrations of KIF18A protein, microtubules (MT), and ATP in the reaction were optimized for standardized homogenous enzyme assay using ADP-Glorm Kinase/ATPase Assay Kit (Promega Inc). The assay measures ADP formed from the ATPase reaction. […] Concentration-response curve-fitting and IC50 determination was performed using Genedata Screener Software (Standard 15.0.1, Genedata Inc) with a four-parameter logistic regression fit model.
Table A provides data for compounds exemplified in the present application and priority document thereof, as representative compounds of the present invention, as follows: chemical name (as named by either ACD software or ChemDraw (Professional 15.0)) and biological data (IC50 in μM). Ex. […] refers to Example No.

T1 sequence (Q8NI77 1-467): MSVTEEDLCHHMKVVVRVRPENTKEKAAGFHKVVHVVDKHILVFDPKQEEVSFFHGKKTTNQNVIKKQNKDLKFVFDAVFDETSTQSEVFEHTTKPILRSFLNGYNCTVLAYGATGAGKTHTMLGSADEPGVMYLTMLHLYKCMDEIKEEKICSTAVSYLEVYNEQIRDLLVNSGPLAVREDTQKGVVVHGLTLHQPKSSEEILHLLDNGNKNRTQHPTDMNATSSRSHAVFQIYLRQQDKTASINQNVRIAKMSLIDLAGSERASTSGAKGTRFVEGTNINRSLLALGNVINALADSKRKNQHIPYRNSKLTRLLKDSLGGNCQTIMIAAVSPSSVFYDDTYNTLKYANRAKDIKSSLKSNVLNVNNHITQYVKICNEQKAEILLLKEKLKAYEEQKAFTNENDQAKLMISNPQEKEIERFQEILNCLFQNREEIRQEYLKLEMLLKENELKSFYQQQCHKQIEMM
T1 sequence (P02550 whole entry partner): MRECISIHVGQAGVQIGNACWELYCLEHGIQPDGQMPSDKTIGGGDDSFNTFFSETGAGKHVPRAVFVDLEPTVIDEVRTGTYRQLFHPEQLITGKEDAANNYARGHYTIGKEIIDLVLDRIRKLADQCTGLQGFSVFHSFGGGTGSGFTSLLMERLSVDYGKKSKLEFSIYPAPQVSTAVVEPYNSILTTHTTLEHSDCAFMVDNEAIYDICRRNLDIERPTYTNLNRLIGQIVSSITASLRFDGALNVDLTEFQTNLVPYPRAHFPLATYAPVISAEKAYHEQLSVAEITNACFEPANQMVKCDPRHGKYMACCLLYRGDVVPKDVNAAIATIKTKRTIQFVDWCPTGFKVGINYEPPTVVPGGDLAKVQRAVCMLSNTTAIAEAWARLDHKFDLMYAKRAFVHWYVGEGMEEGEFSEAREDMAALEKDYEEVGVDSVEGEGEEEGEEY
T1 sequence (P02554 whole entry partner): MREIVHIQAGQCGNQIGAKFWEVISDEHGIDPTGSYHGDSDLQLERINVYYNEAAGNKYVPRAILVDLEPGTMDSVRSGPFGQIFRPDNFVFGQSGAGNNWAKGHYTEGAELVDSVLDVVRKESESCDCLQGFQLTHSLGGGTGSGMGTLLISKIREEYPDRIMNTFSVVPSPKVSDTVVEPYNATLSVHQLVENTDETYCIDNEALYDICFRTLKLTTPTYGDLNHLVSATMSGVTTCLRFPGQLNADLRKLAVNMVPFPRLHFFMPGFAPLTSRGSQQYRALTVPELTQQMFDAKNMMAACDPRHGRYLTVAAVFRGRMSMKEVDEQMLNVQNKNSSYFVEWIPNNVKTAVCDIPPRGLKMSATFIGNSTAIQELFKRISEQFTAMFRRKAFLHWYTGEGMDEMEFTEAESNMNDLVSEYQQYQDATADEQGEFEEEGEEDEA

| SMILES | IC50 |
| --- | --- |
| CC(C)(C)[S@](=N)(=O)c1cccc(NC(=O)c2ccc(NS(=O)(=O)CCO)cc2N2CCC3(CC2)CC3)c1 [Example 114-2, (S)-4-((2-hydroxyethyl)sulfonamido)-N-(3-(2-methylpropan-2-ylsulfonimidoyl)phenyl)-2-(6-azaspiro[2.5]octan-6-yl)benzamide] | 323 nM |
| O=C(Nc1ccc(NS(=O)(=O)CCO)cc1N1CCC2(CC1)CC2)c1cccc(N2CCCCC2)c1 [Example 115, N-(4-((2-Hydroxyethyl)sulfonamido)-2-(6-azaspiro[2.5]octan-6-yl)phenyl)-3-(piperidin-1-yl)benzamide] | 26 nM |
